Data taken from patent US10653691B2, “Method of promoting remyelination” (Case Western Reserve University, priority 2013, dated 2020).

Test system: EpiSC-derived OPCs
Test: Dose-response testing of drug hits (percent PLP1+ oligodendrocytes, cytotoxicity)
Assay type: cell-based, mouse
Conditions: seven point dose response; seen only at the highest 6.7 μM dose
Text: Dose-response testing of drug hits followed the same procedure with the following modifications to eliminate any artefacts in the primary screen: independently sourced drugs; a distinct batch of EpiSC-derived OPCs from a mouse of opposite sex; multi-dose testing; cytotoxicity analysis; an alternative marker of mature oligodendrocytes proteolipid protein 1 (PLP1, antibody clone AA3 provided by B. Trapp; 1:5,000); and an alternative high content assay endpoint parameter (percentage of oligodendrocytes differentiated instead of process intensity and length parameters). […]
For the 5 μM in vitro screen, stained plates were imaged on the Opera confocal imaging system (PerkinElmer) and a set of 24×10 fields were collected from each well, resulting in an average of 10,000 cells being scored per well. For the dose-response (6.7 μM, 5 μM, 3.3 μM, 1.7 μM, 666 nM, 500 nM, and 333 nM) in vitro assays, plates were imaged on the Operetta High Content Imaging and Analysis system (PerkinElmer) and a set of 14×20 fields captured from each well resulting in an average of 3,300 cells being scored per well. […] Each traced nucleus region was then expanded by 50% and cross-referenced with the mature myelin protein (MBP or PLP1) stain to identify oligodendrocyte nuclei, and from this the percentage of oligodendrocytes was calculated. […]

Clc1ccc(COC(Cn2ccnc2)c2ccc(Cl)cc2Cl)c(Cl)c1 (stereo not shown) [miconazole]
toxicity and decrease in PLP1 positive cells in dose response: Slight toxicity and a decrease in PLP1 positive cells
